Results taken from PMC3814616, “BRAF inhibitors suppress apoptosis through off-target inhibition of JNK signaling” (eLife, 2013).
Where two headings read alike, the source gives them in different places.

Key:
ASK1 (MAP3K5) = target: T1, ASK1 (MAP3K5) (Homo sapiens, UniProt Q99683); assay: Quantitative competitive binding assay (KINOMEscan)
T1 construct: purchased KINOMEscan (DiscoveRx), San Diego, CA
T1 sequence (Q99683 1-1374): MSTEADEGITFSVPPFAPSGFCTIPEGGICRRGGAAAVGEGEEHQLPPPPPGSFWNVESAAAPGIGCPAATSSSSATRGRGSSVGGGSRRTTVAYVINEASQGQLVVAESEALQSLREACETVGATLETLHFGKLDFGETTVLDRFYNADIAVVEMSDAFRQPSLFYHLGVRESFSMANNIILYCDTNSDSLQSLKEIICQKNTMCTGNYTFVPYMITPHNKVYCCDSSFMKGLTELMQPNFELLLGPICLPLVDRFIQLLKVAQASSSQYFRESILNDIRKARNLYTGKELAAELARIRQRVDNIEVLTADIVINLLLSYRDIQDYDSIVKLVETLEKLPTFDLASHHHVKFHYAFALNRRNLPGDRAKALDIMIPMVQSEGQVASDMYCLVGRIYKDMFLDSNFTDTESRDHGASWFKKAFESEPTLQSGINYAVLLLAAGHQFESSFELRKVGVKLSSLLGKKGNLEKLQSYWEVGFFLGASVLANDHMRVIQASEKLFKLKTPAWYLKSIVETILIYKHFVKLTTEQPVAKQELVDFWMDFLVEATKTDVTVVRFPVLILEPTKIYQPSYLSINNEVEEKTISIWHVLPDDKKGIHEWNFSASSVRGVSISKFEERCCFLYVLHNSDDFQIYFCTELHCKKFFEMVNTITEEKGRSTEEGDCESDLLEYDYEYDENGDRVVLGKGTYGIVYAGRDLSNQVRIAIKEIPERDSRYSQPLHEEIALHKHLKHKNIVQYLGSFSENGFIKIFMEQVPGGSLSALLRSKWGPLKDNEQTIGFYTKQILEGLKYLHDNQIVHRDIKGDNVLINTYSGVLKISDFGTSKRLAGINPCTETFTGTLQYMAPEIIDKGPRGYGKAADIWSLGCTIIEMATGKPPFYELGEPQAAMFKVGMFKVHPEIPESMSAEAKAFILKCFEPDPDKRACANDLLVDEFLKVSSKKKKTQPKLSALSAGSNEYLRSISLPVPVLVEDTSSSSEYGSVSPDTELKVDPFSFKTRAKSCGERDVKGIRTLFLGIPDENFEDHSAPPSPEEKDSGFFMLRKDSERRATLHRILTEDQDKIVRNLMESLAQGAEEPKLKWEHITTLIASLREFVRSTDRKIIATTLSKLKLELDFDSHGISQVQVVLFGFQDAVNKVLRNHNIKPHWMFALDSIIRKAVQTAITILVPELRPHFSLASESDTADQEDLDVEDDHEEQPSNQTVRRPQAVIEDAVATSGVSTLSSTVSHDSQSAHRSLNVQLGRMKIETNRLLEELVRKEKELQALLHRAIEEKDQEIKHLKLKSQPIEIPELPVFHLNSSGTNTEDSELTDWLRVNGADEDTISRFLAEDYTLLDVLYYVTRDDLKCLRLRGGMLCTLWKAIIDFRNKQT

SRMS = SRMS (Homo sapiens, UniProt Q9H3Y6); assay: as above
SRMS, sequence (Q9H3Y6 whole entry): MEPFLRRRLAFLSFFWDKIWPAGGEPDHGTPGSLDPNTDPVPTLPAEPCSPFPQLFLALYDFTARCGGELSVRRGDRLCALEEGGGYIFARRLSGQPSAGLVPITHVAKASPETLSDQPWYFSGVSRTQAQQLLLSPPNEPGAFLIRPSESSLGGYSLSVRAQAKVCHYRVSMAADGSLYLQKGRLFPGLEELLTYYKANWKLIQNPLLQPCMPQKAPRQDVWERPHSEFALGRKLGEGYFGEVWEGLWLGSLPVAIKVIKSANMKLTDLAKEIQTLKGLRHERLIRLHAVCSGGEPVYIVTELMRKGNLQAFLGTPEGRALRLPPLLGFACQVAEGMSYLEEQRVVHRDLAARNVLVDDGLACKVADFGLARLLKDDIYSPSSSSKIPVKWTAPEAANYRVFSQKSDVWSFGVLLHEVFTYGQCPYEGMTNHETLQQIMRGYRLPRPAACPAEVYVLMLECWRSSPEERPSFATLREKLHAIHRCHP

MAP3K1 = target: T2, MAP3K1 (Homo sapiens, UniProt Q13233); assay: as above
T2 construct: purchased KINOMEscan (DiscoveRx), San Diego, CA
T2 sequence (Q13233 whole entry): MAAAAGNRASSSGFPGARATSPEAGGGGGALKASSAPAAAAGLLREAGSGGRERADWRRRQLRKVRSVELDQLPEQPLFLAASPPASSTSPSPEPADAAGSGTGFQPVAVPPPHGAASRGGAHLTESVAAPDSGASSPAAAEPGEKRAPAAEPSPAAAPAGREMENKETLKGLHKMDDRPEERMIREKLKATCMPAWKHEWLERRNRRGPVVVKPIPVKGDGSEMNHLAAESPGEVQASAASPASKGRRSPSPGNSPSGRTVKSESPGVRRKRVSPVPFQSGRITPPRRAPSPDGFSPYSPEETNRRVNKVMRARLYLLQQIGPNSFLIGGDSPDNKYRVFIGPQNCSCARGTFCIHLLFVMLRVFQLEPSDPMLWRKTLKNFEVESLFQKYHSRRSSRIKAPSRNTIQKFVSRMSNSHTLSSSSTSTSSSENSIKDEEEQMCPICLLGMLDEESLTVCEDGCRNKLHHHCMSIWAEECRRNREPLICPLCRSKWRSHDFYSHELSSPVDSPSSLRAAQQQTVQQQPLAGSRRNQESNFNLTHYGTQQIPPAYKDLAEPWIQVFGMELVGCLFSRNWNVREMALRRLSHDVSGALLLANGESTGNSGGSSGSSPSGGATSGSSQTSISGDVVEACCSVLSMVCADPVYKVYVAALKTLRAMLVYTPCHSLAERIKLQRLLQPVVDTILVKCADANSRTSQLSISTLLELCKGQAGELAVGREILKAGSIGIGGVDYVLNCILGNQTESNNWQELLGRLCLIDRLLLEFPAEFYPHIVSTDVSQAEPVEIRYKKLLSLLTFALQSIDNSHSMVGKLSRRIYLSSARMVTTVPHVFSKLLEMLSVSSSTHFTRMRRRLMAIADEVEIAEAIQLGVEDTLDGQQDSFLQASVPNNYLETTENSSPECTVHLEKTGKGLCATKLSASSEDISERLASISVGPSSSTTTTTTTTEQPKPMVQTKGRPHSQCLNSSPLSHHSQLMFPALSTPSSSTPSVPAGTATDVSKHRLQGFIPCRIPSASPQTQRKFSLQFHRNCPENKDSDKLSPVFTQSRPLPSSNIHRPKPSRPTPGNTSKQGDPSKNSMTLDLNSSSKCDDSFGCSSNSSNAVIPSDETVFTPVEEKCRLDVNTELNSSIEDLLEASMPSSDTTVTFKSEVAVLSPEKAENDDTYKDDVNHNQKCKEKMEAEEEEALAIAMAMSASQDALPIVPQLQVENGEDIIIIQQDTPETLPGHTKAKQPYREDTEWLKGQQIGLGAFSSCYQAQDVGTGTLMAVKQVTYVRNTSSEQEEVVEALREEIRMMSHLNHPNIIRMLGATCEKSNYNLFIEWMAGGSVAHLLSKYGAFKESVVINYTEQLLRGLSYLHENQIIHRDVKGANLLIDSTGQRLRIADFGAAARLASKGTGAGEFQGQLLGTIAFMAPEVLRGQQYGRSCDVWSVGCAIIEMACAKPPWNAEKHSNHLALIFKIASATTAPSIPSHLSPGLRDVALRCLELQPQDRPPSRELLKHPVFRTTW

MEK3 (MAP2K3) = target: T3, MEK3 (MAP2K3) (Homo sapiens, UniProt P46734); assay: as above
T3 construct: purchased KINOMEscan (DiscoveRx), San Diego, CA
T3 sequence (P46734 whole entry): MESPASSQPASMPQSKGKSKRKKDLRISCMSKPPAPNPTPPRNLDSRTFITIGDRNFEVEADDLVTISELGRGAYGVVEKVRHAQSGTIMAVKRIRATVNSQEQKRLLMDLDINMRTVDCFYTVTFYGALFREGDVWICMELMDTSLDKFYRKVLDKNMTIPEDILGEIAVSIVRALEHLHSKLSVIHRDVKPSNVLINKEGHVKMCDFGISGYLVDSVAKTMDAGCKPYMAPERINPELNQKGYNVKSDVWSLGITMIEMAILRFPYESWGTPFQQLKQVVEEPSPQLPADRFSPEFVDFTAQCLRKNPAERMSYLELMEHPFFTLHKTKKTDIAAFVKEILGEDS

TNIK = target: T4, TNIK (Homo sapiens, UniProt Q9UKE5); assay: as above
T4 construct: purchased KINOMEscan (DiscoveRx), San Diego, CA

MLK1 (MAP3K9) [1] = target: T5, MLK1 (MAP3K9) (Homo sapiens, UniProt P80192); assay: as above
T5 construct: purchased KINOMEscan (DiscoveRx), San Diego, CA

TAOK3 = target: T6, TAOK3 (Homo sapiens, UniProt Q9H2K8); assay: as above
T6 construct: purchased KINOMEscan (DiscoveRx), San Diego, CA

MLK1 (MAP3K9) [2] = target: T5, MLK1 (MAP3K9); conditions: ref Tsai et al., 2008; read-out: Published biochemical IC50; cited from earlier work
STK39 = target: T7, STK39 (Homo sapiens, UniProt Q9UEW8); assay: Quantitative competitive binding assay (KINOMEscan)
T7 construct: purchased KINOMEscan (DiscoveRx), San Diego, CA

DLK (MAP3K12) = target: T8, DLK (MAP3K12) (Homo sapiens, UniProt Q12852); assay: as above
T8 construct: purchased KINOMEscan (DiscoveRx), San Diego, CA
T8 sequence (Q12852 whole entry): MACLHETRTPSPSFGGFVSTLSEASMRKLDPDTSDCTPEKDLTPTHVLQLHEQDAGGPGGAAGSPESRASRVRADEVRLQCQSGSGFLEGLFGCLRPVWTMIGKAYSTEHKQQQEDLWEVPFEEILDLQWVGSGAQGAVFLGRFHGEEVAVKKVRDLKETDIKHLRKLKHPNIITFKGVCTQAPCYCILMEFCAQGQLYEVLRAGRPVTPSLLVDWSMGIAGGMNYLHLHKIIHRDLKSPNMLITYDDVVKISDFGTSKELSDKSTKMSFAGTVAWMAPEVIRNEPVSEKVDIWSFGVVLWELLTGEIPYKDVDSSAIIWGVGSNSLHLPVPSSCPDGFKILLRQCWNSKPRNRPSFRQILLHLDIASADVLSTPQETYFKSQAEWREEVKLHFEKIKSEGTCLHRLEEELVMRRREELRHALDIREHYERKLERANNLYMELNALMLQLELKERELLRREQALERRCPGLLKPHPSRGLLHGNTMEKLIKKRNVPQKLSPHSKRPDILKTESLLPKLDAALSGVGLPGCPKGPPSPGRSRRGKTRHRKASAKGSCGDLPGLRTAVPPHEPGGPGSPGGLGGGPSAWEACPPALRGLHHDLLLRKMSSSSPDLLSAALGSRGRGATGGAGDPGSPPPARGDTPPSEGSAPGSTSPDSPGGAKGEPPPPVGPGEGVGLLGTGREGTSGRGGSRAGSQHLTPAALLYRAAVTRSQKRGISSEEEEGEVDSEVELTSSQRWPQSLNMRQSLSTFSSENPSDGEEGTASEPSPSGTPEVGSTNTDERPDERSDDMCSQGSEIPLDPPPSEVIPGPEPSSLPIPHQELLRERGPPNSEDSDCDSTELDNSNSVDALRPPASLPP

MEK6 (MAP2K6) = target: T9, MEK6 (MAP2K6) (Homo sapiens, UniProt P52564); assay: as above
T9 construct: purchased KINOMEscan (DiscoveRx), San Diego, CA
T9 sequence (P52564 whole entry): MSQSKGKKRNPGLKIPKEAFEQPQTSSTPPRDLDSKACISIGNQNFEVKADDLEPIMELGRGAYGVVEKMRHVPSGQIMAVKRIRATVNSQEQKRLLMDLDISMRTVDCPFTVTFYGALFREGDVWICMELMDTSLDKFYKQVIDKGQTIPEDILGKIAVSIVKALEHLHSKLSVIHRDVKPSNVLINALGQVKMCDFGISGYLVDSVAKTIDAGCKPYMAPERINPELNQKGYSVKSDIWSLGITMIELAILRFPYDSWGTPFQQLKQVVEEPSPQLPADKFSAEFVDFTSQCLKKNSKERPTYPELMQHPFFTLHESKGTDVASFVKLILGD

TAK1 (MAP3K7) = target: T10, TAK1 (MAP3K7) (Homo sapiens, UniProt O43318); assay: as above
T10 construct: purchased KINOMEscan (DiscoveRx), San Diego, CA

BRK (PTK6) = BRK (PTK6) (Homo sapiens, UniProt Q13882); assay: as above
BRK (PTK6), sequence (Q13882 whole entry): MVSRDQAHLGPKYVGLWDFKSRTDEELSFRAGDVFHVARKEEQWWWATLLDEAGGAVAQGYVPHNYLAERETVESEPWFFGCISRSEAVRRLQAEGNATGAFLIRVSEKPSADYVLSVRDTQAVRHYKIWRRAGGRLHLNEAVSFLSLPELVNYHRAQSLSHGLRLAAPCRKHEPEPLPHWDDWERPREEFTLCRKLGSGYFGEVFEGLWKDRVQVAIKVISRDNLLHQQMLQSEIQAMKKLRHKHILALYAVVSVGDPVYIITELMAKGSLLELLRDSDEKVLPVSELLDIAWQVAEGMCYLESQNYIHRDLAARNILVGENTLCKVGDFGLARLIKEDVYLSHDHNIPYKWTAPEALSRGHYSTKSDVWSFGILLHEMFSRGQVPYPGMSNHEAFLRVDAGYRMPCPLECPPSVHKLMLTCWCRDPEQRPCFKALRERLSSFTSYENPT

FGR = target: T11, FGR (Homo sapiens, UniProt P09769); assay: as above
T11 construct: purchased KINOMEscan (DiscoveRx), San Diego, CA
T11 sequence (P09769 whole entry): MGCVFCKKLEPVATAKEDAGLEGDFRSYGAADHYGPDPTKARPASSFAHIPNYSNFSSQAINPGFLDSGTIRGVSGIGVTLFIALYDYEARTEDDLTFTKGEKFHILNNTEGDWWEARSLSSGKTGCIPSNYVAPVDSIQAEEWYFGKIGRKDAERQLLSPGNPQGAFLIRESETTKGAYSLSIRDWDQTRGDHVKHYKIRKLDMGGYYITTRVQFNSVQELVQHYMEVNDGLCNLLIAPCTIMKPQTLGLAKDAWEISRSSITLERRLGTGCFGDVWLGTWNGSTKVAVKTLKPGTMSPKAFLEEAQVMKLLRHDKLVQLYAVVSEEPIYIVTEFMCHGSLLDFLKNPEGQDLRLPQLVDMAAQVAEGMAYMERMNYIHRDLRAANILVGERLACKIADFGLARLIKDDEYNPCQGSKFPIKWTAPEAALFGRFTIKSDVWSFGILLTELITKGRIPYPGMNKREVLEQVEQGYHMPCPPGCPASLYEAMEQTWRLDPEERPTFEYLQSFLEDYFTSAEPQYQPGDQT

[3] = estimated Kd, averaged pointwise estimates, transformed Hill equation, read-out: Calculated estimate of IC50
[4] = read-out: Percent control (50 nM)
[5] = read-out: Percent control (200 nM)
[6] = read-out: Percent control (1000 nM)
[7] = read-out: Percent control (10 μM)

CCCS(=O)(=O)Nc1ccc(F)c(C(=O)c2c[nH]c3ncc(Cl)cc23)c1F [PLX4720]
IC50 (ASK1 (MAP3K5); [3]): 14.2 µM
remaining binding at 0.05 µM (ASK1 (MAP3K5); [4]): 89%
remaining binding at 0.2 µM (ASK1 (MAP3K5); [5]): 98%
remaining binding at 1 µM (ASK1 (MAP3K5); [6]): 97%
remaining binding at 10 µM (ASK1 (MAP3K5); [7]): 100%
IC50 (SRMS; [3]): 0.00064 µM
remaining binding at 0.05 µM (SRMS; [4]): 1.9%
remaining binding at 0.2 µM (SRMS; [5]): 0.55%
remaining binding at 1 µM (SRMS; [6]): 0.05%
remaining binding at 10 µM (SRMS; [7]): 0%
remaining binding at 0.05 µM (MAP3K1; [4]): 96%
remaining binding at 0.2 µM (MAP3K1; [5]): 100%
remaining binding at 1 µM (MAP3K1; [6]): 92%
remaining binding at 10 µM (MAP3K1; [7]): 84%
remaining binding at 0.05 µM (MEK3 (MAP2K3); [4]): 100%
remaining binding at 0.2 µM (MEK3 (MAP2K3); [5]): 100%
remaining binding at 1 µM (MEK3 (MAP2K3); [6]): 100%
remaining binding at 10 µM (MEK3 (MAP2K3); [7]): 64%
remaining binding at 0.05 µM (TNIK; [4]): 97%
remaining binding at 0.2 µM (TNIK; [5]): 89%
remaining binding at 1 µM (TNIK; [6]): 79%
remaining binding at 10 µM (TNIK; [7]): 24%
IC50 (MLK1 (MAP3K9) [1]; [3]): > 10 µM
remaining binding at 0.05 µM (MLK1 (MAP3K9) [1]; [4]): 100%
remaining binding at 0.2 µM (MLK1 (MAP3K9) [1]; [5]): 100%
remaining binding at 1 µM (MLK1 (MAP3K9) [1]; [6]): 100%
remaining binding at 10 µM (MLK1 (MAP3K9) [1]; [7]): 100%
remaining binding at 0.05 µM (TAOK3; [4]): 100%
remaining binding at 0.2 µM (TAOK3; [5]): 98%
remaining binding at 1 µM (TAOK3; [6]): 96%
remaining binding at 10 µM (TAOK3; [7]): 58%
IC50 (MLK1 (MAP3K9) [2]): > 5 µM
remaining binding at 0.05 µM (STK39; [4]): 100%
remaining binding at 0.2 µM (STK39; [5]): 100%
remaining binding at 1 µM (STK39; [6]): 100%
remaining binding at 10 µM (STK39; [7]): 59%
remaining binding at 0.05 µM (DLK (MAP3K12); [4]): 95%
remaining binding at 0.2 µM (DLK (MAP3K12); [5]): 98%
remaining binding at 1 µM (DLK (MAP3K12); [6]): 100%
remaining binding at 10 µM (DLK (MAP3K12); [7]): 92%
remaining binding at 0.05 µM (MEK6 (MAP2K6); [4]): 82%
remaining binding at 0.2 µM (MEK6 (MAP2K6); [5]): 100%
remaining binding at 1 µM (MEK6 (MAP2K6); [6]): 100%
remaining binding at 10 µM (MEK6 (MAP2K6); [7]): 47%
remaining binding at 0.05 µM (TAK1 (MAP3K7); [4]): 90%
remaining binding at 0.2 µM (TAK1 (MAP3K7); [5]): 88%
remaining binding at 1 µM (TAK1 (MAP3K7); [6]): 85%
remaining binding at 10 µM (TAK1 (MAP3K7); [7]): 49%
IC50 (BRK (PTK6); [3]): 0.0304 µM
remaining binding at 0.05 µM (BRK (PTK6); [4]): 47%
remaining binding at 0.2 µM (BRK (PTK6); [5]): 14%
remaining binding at 1 µM (BRK (PTK6); [6]): 2.4%
remaining binding at 10 µM (BRK (PTK6); [7]): 0.2%
IC50 (FGR; [3]): 0.153 µM
remaining binding at 0.05 µM (FGR; [4]): 69%
remaining binding at 0.2 µM (FGR; [5]): 38%
remaining binding at 1 µM (FGR; [6]): 11%
remaining binding at 10 µM (FGR; [7]): 2.5%
